Experimental data reported in ChEMBL document CHEMBL1201862, “PubChem BioAssay data set” (2004).
Activity calls are given as the source filed them.

How the values were obtained:
[1] = viability of PTEN-deleted HCT116 cells – cell-based, HCT116 PTEN knockout, dose response (AID 1047); format: functional;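 also: HCT116 colon tumor cells with PTEN knocked out; cells exposed to compound for 60 hours before readout; potency for loss of cell viability measured by luminescence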
[2] = viability of HCT116 lacking mutant beta-catenin – cell-based, human colon tumor, dose response (AID 1045); format: functional;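 also: HCT116 colon tumor cells with beta catenin knocked out; cells exposed to compound for 60 hours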
Cytochrome P450 3A4 = Cytochrome P450 3A4 (Homo sapiens, UniProt P08684);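 also: CYP3A4 tested as one member of a cytochrome P450 panel screen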
Chain of Cytochrome P450 3A4 (P08684 whole entry): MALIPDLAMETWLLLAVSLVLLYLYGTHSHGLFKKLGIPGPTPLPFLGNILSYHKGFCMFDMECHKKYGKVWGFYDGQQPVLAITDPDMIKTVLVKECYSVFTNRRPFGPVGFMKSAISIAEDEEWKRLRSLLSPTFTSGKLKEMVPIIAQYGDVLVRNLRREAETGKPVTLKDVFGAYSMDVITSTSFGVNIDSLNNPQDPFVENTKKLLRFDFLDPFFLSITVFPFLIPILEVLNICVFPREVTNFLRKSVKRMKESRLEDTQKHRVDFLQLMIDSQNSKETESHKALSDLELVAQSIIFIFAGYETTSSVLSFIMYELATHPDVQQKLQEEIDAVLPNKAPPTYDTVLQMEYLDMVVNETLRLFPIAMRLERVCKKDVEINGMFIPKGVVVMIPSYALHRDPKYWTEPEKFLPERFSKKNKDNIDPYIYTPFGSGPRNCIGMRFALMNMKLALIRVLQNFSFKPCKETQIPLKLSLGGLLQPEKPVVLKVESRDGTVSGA

[3] = viability of uninfected HEp-2 cells – cell-based, HTS, cytotoxicity control for RSV inhibitor project, dose response (AID 2410); format: functional; details: human respiratory syncytial virus
Cytochrome P450 1A2 = molecular target: T1, Cytochrome P450 1A2 (Homo sapiens, UniProt P05177);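 also: PubChem cytochrome P450 panel assay, CYP1A2 panel member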
T1 sequence (P05177 whole entry): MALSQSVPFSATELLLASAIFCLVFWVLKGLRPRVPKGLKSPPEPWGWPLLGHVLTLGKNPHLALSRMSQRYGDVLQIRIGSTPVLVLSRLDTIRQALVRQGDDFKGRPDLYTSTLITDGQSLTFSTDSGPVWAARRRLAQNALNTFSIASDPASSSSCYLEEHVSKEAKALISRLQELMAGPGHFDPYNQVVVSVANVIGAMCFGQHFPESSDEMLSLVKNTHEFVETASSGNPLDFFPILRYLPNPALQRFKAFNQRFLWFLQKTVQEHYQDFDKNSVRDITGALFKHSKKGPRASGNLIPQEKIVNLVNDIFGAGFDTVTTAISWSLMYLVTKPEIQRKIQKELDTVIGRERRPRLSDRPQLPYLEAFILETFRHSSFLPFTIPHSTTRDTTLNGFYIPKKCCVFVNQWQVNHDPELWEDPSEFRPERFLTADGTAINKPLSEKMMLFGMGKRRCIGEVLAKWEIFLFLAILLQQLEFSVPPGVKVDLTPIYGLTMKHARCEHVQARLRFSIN

H9c2 = test: cells; format: functional, cell-based; details: Rattus norvegicus, H9c2, Myocardium;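 also: confirmatory concentration-response retest of ultra-high-throughput screening hits for modulation of myocardial damage; cell death induced by hydrogen peroxide oxidative stress; compound pretreatment for 60 min then peroxide exposure for 2 h; potency is for protecting the cells against peroxide damage rather than for killing them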
[4] = molecular target: T2, Corticotropin-releasing factor receptor 2/Corticotropin-releasing factor-binding protein (Homo sapiens, UniProt P24387+Q13324); test: activators of CRF receptor 2 with binding protein – uHTS hits, confirmation (AID 602473); format: functional; details: read-out: EC50_Mean
T2 sequence (Q13324 whole entry): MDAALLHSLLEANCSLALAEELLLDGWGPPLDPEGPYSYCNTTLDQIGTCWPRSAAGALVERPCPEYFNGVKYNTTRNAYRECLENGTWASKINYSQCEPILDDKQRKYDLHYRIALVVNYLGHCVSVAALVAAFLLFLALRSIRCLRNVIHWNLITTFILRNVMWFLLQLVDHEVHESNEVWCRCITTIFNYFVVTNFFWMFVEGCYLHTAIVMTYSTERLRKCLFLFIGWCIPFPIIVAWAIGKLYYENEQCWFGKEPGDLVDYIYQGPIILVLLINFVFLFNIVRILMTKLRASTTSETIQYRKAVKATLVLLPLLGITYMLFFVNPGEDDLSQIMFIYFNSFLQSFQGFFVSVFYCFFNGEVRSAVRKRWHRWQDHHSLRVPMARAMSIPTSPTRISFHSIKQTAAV
T2 sequence (P24387 whole entry): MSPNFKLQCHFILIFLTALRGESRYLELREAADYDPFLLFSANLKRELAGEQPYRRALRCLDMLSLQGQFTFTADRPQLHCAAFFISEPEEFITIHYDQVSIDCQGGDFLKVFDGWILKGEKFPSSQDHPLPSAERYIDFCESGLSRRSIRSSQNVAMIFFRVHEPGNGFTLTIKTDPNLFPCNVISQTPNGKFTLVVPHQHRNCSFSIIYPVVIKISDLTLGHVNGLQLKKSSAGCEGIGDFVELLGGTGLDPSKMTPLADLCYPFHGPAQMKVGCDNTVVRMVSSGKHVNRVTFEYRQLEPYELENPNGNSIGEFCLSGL

[5] = NIH3T3 cell viability loss – ATP luminescence, mouse fibroblasts, counter-screen, dose response (AID 2010); format: functional, cell-based;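 also: cells exposed to compound for about 90 hours before reading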
[6] = Trypanosoma cruzi growth suppression in host cells – NIH3T3 host cells, beta-gal luminescence, confirmation (AID 2044); format: functional, cell-based;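 also: intracellular parasites grown in NIH/3T3 mouse fibroblasts as host cells; luminescent beta-galactosidase reporter signal from transgenic T. cruzi replicating inside host cells; inhibitors lower the luminescence signal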
Streptococcus = test: GAS UMAA2166 growth inhibition – luminescence, BacTiterGlo, counter-screen for streptokinase expression inhibitor project, dose response (AID 1915); format: functional, organism-based;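 also: potency for reduction of bacterial viability or growth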
[7] = test system: Streptococcus sp. 'group A'; test: Streptococcus pyogenes SK(-)GAS viability under kanamycin – luminescence, BacTiterGlo, confirmation, counter-screen for streptokinase expression inhibitor project, dose response (AID 1900); format: functional, organism-based
H4 = test: Luminescence Cell-Based Dose Response HTS to Identify Activators of 5'UTR Stem-Loop Driven Prion Protein mRNA Translation in H4 Neuroglioblastoma Cells. [Related pubchem assays: 1829 (Project Summary), 1814 (Primary HTS)]; format: functional; details: Homo sapiens
[8] = Luminescence Cell-Based Dose Response HTS to Identify Activators of Luciferase Translation or Activity in H4 […] Cells. [Related pubchem assays: 1829 (Project Summary), 1814 (Primary HTS)]; format: functional

COC(=O)c1sccc1NC(=O)/C=C/c1ccc(Cl)cc1Cl
EC50 [1]: 13.8 µM (active) | EC50 [2]: 51.4 µM (active)

COc1ccc(-n2c(=O)c(-c3ccc(F)cc3)nc3cnc(OC)nc32)cc1
AC50 (Cytochrome P450 3A4): 15.8 µM (inconclusive)

CCCn1c(C(C)Nc2nc(-c3ccc(C)cc3)cs2)nc2ccccc21 (configuration not stated)
CC50 [3]: 15.2 µM (active)

Cc1nc2nc(-c3ccccc3)nn2c(C)c1C
CC50 [3]: 39.4 µM (active)

C[C@@H](C(=O)Nc1ccc2ccccc2c1)[C@H]1C[C@]1(C)[C@H](NS(=O)(=O)c1ccc(-c2ccccc2)cc1)c1ccccc1
AC50 (Cytochrome P450 1A2): 15.8 µM (inconclusive)

CCN(CC)CCNC(=O)CCc1nnc(O)c2ccccc12
IC50 (H9c2): > 79 µM (inactive)

O=c1[nH]c(=O)n(-c2ccccc2)c2c1C(C(F)(F)F)(C(F)(F)F)NC(CCC1CCCCC1)=N2
EC50 [4]: 7.07 µM (active)

O=C(O)c1[nH]c2c([N+](=O)[O-])cc([N+](=O)[O-])cc2c1C(=O)O
AC50 (Cytochrome P450 1A2): 0.126 µM (inconclusive)

Cc1c(NC(=O)c2cc3c(s2)-c2ccccc2OC3)cccc1[N+](=O)[O-]
CC50 [3]: 6.43 µM (active)

N#CC1=C(N)Oc2c(c(=O)sc3ccccc23)C1c1cccnc1 (configuration not stated)
EC50 [5]: 8.85 µM (active) | EC50 [6]: 0.536 µM (active)

NS(=O)(=O)c1ccc(/N=N\c2nc3c(S)ncnc3[nH]2)cc1
AC50 (Cytochrome P450 1A2): 6.31 µM (inconclusive)

COc1ccc2c(c1)OC[C@H]1[C@H]2N2C(=O)CN(Cc3ccc(F)cc3)C(=O)[C@@]2(C)[C@H]1c1ccccc1
CC50 [3]: 16.4 µM (active)

[O-][n+]1c(CN2CCCCC2)nc2cccc3c2c1-c1ccccc1-3
AC50 (Cytochrome P450 3A4): 3.16 µM (inconclusive)

O=C(c1ccc(COc2ccccc2Cl)o1)N1CCN(c2ccccc2)CC1
CC50 [3]: 13.4 µM (active)

Cc1cc(O)n2nc(Nc3cccc(Cl)c3)nc2n1
EC50 [4]: > 53 µM (inactive)

COc1ccc2[nH]cc(C(=O)CN3CCCCC3)c2c1
EC50 [4]: > 53 µM (inactive)

CCOc1ccccc1C(=O)Nc1cccc2cccnc12
CC50 [3]: 30.4 µM (active)

S=C(NC1CCCCC1)N1CCn2cccc2C1c1cccnc1 (configuration not stated)
EC50 [5]: > 60 µM (not active) | EC50 [6]: 0.379 µM (active)

O=[N+]([O-])c1cc([N+](=O)[O-])c2[nH]nc(-c3ccccc3)c2c1
EC50 [5]: > 60 µM (not active) | EC50 [6]: 1.47 µM (active)

COc1ccccc1OCCCn1cc(C=O)c2ccccc21
CC50 [3]: 8.95 µM (active)

COc1cccc(-c2nnc(Nc3nc4c(F)cccc4s3)o2)c1
EC50 (Streptococcus): 26.2 µM (active) | EC50 [7]: 0.767 µM (active)

N=c1c2c(-c3ccccc3)c(-c3ccccc3)n(Cc3ccco3)c2ncn1CCN1CCOCC1
EC50 [1]: 7.92 µM (active) | EC50 [5]: > 60 µM (not active) | EC50 [6]: 1.53 µM (active) | EC50 [2]: 8.19 µM (active)

COc1ccccc1NS(=O)(=O)c1cc(NC(=O)c2cccs2)ccc1N1CCCCC1
EC50 [5]: > 30 µM (not active) | EC50 [6]: 1.23 µM (active)

CSCCC(NC(=O)c1ccco1)C(=O)OCc1cc([N+](=O)[O-])cc2c1OCOC2 (configuration not stated)
EC50 [4]: 6.29 µM (active)

COc1cc(/C=C(\C#N)c2nc3ccccc3s2)ccc1OCC(=O)Nc1ccccc1
EC50 [1]: 25.2 µM (active) | EC50 [2]: 560 µM (active)

CN(C)CCCNc1c2c(nc3cc(-c4cccc(F)c4)nn13)CCC2
EC50 [5]: > 60 µM (not active) | EC50 [6]: 0.181 µM (active)

O=C(Nc1ccc(Cl)cc1)N1CCCN(Cc2ccc(F)cc2)C1
EC50 [1]: 17.2 µM (active) | EC50 [2]: 16.4 µM (active)

NNC(=O)CNc1cccc(Br)c1
AC50 (Cytochrome P450 3A4): 2.51 µM (inconclusive)

COc1ccc(Cl)cc1NC(=O)CSc1nnc(Cc2cccn2C)n1-c1ccc(F)cc1
EC50 [1]: 80.8 µM (active) | EC50 [2]: 72.9 µM (active)

CN1CCN(c2ccc(-c3ccnn3C(=O)Nc3cccc(C(F)(F)F)c3)cc2)CC1
EC50 (H4): 5.98 µM (active) | EC50 [8]: 3.08 µM (active)

Nc1nc2nc(-c3ccccc3)cc(C(F)(F)F)c2s1
CC50 [3]: 35.5 µM (active)

CCn1cc(C(=O)NCc2ccc3c(c2)OCO3)c(=O)c2cc(F)c(N3CCN(C)CC3)cc21
EC50 [5]: > 60 µM (not active) | EC50 [6]: 1.16 µM (active)

CCc1cccc2cc3c(N)c(C(=O)Nc4ccc(S(=O)(=O)N5CCCC5)cc4)sc3nc12
CC50 [3]: 38 µM (active)

CC(C(=O)NC1CCCC1)N(C(=O)Cn1nnc(-c2ccc(F)cc2)n1)c1ccccc1F (configuration not stated)
IC50 (H9c2): > 79 µM (inactive)

CN1/C(=C\C=C(/C#N)C(=O)Nc2ccccc2F)C(C)(C)c2ccccc21
EC50 [4]: 5.05 µM (active)

O=C(NCCNc1ccc([N+](=O)[O-])cc1)c1ccccc1Br
AC50 (Cytochrome P450 3A4): 28.2 µM (inconclusive)

O=C(Nc1ccc(N2CCN(C(=O)c3ccc(Cl)cc3)CC2)cc1)c1ccc(Br)o1
EC50 [5]: > 60 µM (not active) | EC50 [6]: 4.09 µM (active)

C[C@@H](C1=C(CCN(C)C)Cc2ccccc21)c1ccccn1
AC50 (Cytochrome P450 1A2): 20 µM (inconclusive)

Oc1nc(-c2ccccc2)n(-c2ccc(Cl)cc2)n1
EC50 [4]: > 53 µM (inactive)

COc1ccc(OC)c(C(=O)CSc2nnc(Cc3cccs3)n2CCc2ccccc2)c1
AC50 (Cytochrome P450 1A2): 7.08 µM (inconclusive) | AC50 (Cytochrome P450 3A4): 39.8 µM (inconclusive)

Cc1cccc(N2CCN(c3nc4ccc(Cl)cc4n4cnnc34)CC2)c1C
EC50 [1]: 19.1 µM (active) | EC50 [2]: 20 µM (active)

CCSc1nnc2nc3c(c(O)n12)C1(CCCC1)Cc1ccccc1-3
EC50 (Streptococcus): 8.43 µM (active) | EC50 [7]: 8.43 µM (active)

FC(F)(F)c1ccc2c(c1)nc(S)n2C1CC1
CC50 [3]: 34.1 µM (active)

Cc1cccc(Nc2nc(N3CCOCC3)nc(N3CCOCC3)n2)c1
EC50 [5]: 5.8 µM (active) | EC50 [6]: 0.465 µM (active)

O=C(Nc1ccc2nn(-c3ccccc3)nc2c1)c1cccnc1
CC50 [3]: > 50 µM (active)

CC(C)(C)C(=O)Cn1c(=N)n(Cc2ccccc2Cl)c2ccccc21
EC50 [5]: > 60 µM (not active) | EC50 [6]: 2.39 µM (active)

COc1ccc(CCNC(=O)COc2ccc(S(=O)(=O)NC3CCCCC3)cc2Cl)cc1
AC50 (Cytochrome P450 1A2): 25.1 µM (inconclusive)

Cc1ncc(C/N=C\c2ccc(Cl)cc2)c(N)n1
AC50 (Cytochrome P450 1A2): 5.01 µM (inconclusive)

Cc1ccc(NC(=O)N(Cc2ccco2)Cc2cc3cc(C)cc(C)c3nc2Cl)cc1
EC50 [5]: > 30 µM (not active) | EC50 [6]: 2.78 µM (active)

C[C@]12CC[C@H](O)C[C@@H]1CC[C@H]1[C@H]2CC[C@]2(C)[C@H](C(=O)CO)CC[C@@H]12
AC50 (Cytochrome P450 3A4): 1 µM (inconclusive)

O=C(CCCN1C(=O)/C(=C/c2ccccc2Cl)SC1=S)N1CCCC1
CC50 [3]: 15.5 µM (active)

CCOc1ccc(CN2CCN(Cc3nc(C(C)C)cs3)CC2CCO)cc1 (configuration not stated)
EC50 [5]: > 60 µM (not active) | EC50 [6]: 0.845 µM (active)

COc1ccc(-c2nc3cnc(N(C)C)nc3n(C[C@H]3CCCO3)c2=O)cc1
AC50 (Cytochrome P450 3A4): 6.31 µM (inconclusive)

O=C(CCn1c(=S)[nH]c2ccccc2c1=O)NCCCN1CCOCC1
AC50 (Cytochrome P450 3A4): 7.08 µM (inconclusive)

COc1ccc(/C=N\NC(=O)O)cc1
AC50 (Cytochrome P450 1A2): 0.501 µM (inconclusive)

COc1ccc(-c2oc(/N=C/N3CCCC3)c(C#N)c2-c2ccc(OC)cc2)cc1
EC50 [5]: > 60 µM (not active) | EC50 [6]: 1.75 µM (active)

Cc1c(/C=N\NC(=O)C2COc3ccc(C(C)(C)C)cc3O2)c2ccccc2n1C (configuration not stated)
EC50 [5]: > 60 µM (not active) | EC50 [6]: 2.25 µM (active)
